This note sets out measurements from publication PMC7151704, “4-Amino-1,2,4-triazole-3-thione as a Promising Scaffold for the Inhibition of Serine and Metallo-β-Lactamases” (Pharmaceuticals, 2020).

Common to all, as to experiment: nitrocefin hydrolysis, spectrophotometric; Ki from IC50 by Cheng-Prusoff
Holding throughout (type): biochemical

In test [1] the target is T1, IMP-1 (Pseudomonas aeruginosa, UniProt Q79MP6).
T1 construct: gene blaIMP-1; codon-optimised wild type gene, pETite N-His SUMO Kan, E. coli Lemo21(DE3); His-SUMO cleaved by SUMO protease; IMAC and Superose 12
T1 sequence (Q79MP6 19-246 limits assumed): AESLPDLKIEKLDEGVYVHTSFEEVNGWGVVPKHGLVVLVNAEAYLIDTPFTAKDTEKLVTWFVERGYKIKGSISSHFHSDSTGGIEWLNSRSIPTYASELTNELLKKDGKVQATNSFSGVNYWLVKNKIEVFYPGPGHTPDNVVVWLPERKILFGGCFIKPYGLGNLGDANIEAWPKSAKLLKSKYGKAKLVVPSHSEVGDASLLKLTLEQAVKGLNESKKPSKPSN

Test [2] has as its target T2, VIM-1 (Pseudomonas aeruginosa, UniProt Q9XAY4).
T2 construct: gene blaVIM; recombinant untagged, pET-24a(+) blaVIM-1 (pBPAQND2009), E. coli BL21(DE3); High Q and Superdex 75; zinc-supplemented buffers

The target in test [3] is T3, KPC-2 (Klebsiella pneumoniae, UniProt Q9F663).
T3 construct: recombinant, 'full-length KPC-2 enzyme'
T3 sequence (Q9F663 25-293 limits assumed): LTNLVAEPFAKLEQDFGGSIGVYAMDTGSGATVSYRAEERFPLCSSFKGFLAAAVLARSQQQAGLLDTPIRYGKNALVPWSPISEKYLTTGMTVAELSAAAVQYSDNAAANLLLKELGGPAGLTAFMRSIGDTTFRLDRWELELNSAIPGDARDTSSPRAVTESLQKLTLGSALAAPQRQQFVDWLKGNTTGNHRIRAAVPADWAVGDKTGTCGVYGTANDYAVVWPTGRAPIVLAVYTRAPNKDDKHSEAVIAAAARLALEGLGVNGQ
The source says: nitrocefin hydrolysis, spectrophotometric; Ki from IC50 by Cheng-Prusoff on KPC-2

One may read the Ki as a dissociation constant, usually derived from enzyme kinetics or from competition with a known ligand. Read a low Ki as higher affinity. Take `CCN(CC)c1ccc(CNn2cn[nH]c2=S)cc1` [1d, 4-((4-(diethylamino)benzyl)amino)-2,4-dihydro-3H-1,2,4-triazole-3-thione]: the Ki in test [1] came out at 173 ± 6 µM; in test [2] it was 224 ± 11 µM; in test [3], 263 ± 13 µM.

With `S=c1[nH]ncn1NCc1ccc2c(c1)OCO2` [1f, 4-((benzo[d][1,3]dioxol-5-ylmethyl)amino)-2,4-dihydro-3H-1,2,4-triazole-3-thione], the Ki in test [1] was found to be 125 ± 5 µM; in test [2], 120 ± 4 µM; in test [3], 138 ± 3 µM.

Take `Sc1nncn1/N=C/c1ccc(Br)cc1` [2b, 4-((4-bromobenzylidene)amino)-2,4-dihydro-3H-1,2,4-triazole-3-thione]: the Ki in test [1] amounted to 285 ± 13 µM; in test [2], 58 ± 2 µM; in test [3] it was 158 ± 7 µM.

Regarding `S=c1[nH]ncn1/N=C/c1c[nH]c2ccccc12` [2g, 4-(((1H-indol-3-yl)methylene)amino)-2,4-dihydro-3H-1,2,4-triazole-3-thione], the Ki was 104 ± 4 µM in test [1], 95 ± 3 µM in test [2] and 139 ± 4 µM in test [3].
